SMILES | melting point
CCN1CCN(CC)c2cc(Nc3nc(Cl)ncc3Cl)ccc2C1 | 69 to 73 °C
COC(=O)CCCc1cc2cc(C(F)(F)F)ccc2n1S(=O)(=O)c1cccc(C(C)(C)C)c1 | 84 °C
COC(=O)c1ccccc1S(=O)(=O)NCC(=O)N[C@@H](Cc1ccccc1)C(=O)O | 140 to 143 °C
OC(COc1ccccc1Br)C(Cl)(Cl)Cl (stereo unspecified) | 88 to 90 °C
CC(=O)Nc1nc2c(Oc3cc(-c4ccc(C(F)(F)F)cc4OCc4ccccc4)ncn3)cccc2s1 | 201 to 203 °C
C=CCN(c1ccccc1)c1ncc(C(C)C(=O)O)s1 (stereo unspecified) | 134 to 135 °C
O=S(=O)(c1ccc(-n2ncnc2-c2cnccn2)cc1)C(F)F | 152 to 154 °C
COC(=O)c1ccc2sc(C(=O)OC)c(O)c2c1Cl | 127 to 131 °C
Fc1ccc2c(-c3ccc(OC[C@H]4CO4)cc3)noc2c1 | 132 to 133 °C
CCCCn1c(=O)c(NC(=O)Nc2cc(CO)ccc2C(C)(C)C)c(-c2cccc(OC)c2)c2cccnc21 | 102 to 105 °C
CCOC(=O)C(NC=O)=C(c1ccc(F)cc1)c1ccc(F)cc1 | 174 to 176 °C
CCC(C(=O)N(CC)CC)n1cc(C)c(-c2ccccc2)n1 (stereo unspecified) | 80 to 82 °C
CCCn1cc(-c2ccccc2)c(=O)c(-c2ccccc2)n1 | 94 to 96 °C
CCCCCCCOc1ccc(CNc2ccc(C(=O)O)cc2)cc1 | 148 to 152 °C
Cc1c(CN2CCc3c(c4cccc(F)c4n3C)C2=O)ncn1S(=O)(=O)N(C)C | 162 to 166 °C
O=c1[nH]c2ccc(C(F)(F)F)cc2c(-c2cc(Cl)ccc2O)c1NS(=O)(=O)c1ccccc1 | 262 to 265 °C
CN(C)C=Nc1nc(OCc2ccc(F)cc2)ncc1F | 113 to 115 °C
Oc1ccnc(OC(F)F)c1 | 88.6 to 89.8 °C
O=C(O)CC(CC(=O)O)c1cc(C(=O)O)n(CC(=O)O)c1 | 130 °C
O=C(/C=C/c1ccc(NS(=O)(=O)c2ccc(-c3ccccc3)cc2)cc1)NO | 190 to 192 °C
CC(C)On1cnc2c(N)nc3ccccc3c21 | 224 to 225 °C
CCOc1ccc2c(c1)C(C)=CC(C)(C)N2C(=O)Cl | 75.5 to 76.5 °C
CCc1nn(C2CCCC2)c2cc(C(=O)Nc3c(Cl)ncnc3Cl)ccc12 | 171 to 172 °C
COc1ccc([N+](=O)[O-])c2nccc(Cl)c12 | 125 to 138 °C
C=C(Nc1nc(-c2ccccc2)c(-c2nc3ccccc3c(=O)n2-c2ccc(Cl)cc2)s1)c1ccco1 | 270 to 274 °C
COc1nc(C)n2nc(S(=O)(=O)Nc3c(Cl)cccc3Cl)nc2c1Cl | 255 to 256 °C

SMILES | melting point
CN(C)c1ccc(-c2ccccc2C(=O)O)nc1 | 234 to 236 °C
CCC(O)P(=O)(OCc1ccccc1)OCc1ccccc1 (stereo unspecified) | 81 to 82 °C
CC(C)CC(NC(=O)c1ccc(NCc2c[nH]cn2)cc1-c1ccccc1)C(=O)O (stereo unspecified) | 114 to 116 °C
O=C(O)/C=C(\CC(O)CCCCCCc1ccc(Cl)cc1Cl)C(=O)O (stereo unspecified) | 92 to 93 °C
Cc1ccc(S(=O)(=O)N2CCC[C@H]2C(=O)N[C@@H](Cc2ccc(NC(=O)C3CCNCC3)cc2)C(=O)O)cc1 | 125 to 128 °C
CN1C(=O)CN=C(c2ccccc2Cl)c2cc([N+](=O)[O-])ccc21 | 220 °C
CN1CCN(c2nc3c(cc2F)c(=O)c(C(=O)O)cn3C2CSC2)CC1 | 270 to 280 °C
CN(C(CCN1C(=O)c2ccccc2C1=O)C(=O)O)S(=O)(=O)c1ccc(Oc2ccc(Cl)cc2)cc1 (stereo unspecified) | 166 to 167 °C
O=C1c2ccccc2-n2cncc2[C@@H]2CCN12 | 195 to 197 °C
CP(C)(=O)CCCOC(=O)c1ccccc1Nc1ccnc2cc(Cl)ccc12 | 162 °C
CNC(=O)C(O)C(Oc1ccccc1[N+](=O)[O-])c1ccccc1 (stereo unspecified) | 162 to 163 °C
O=C(O)CCC(=O)c1ccc2[nH]c3ncc(Cl)cc3c2c1 | 243 °C
CC(=O)c1nc2ccc(OCC(F)(F)C(F)(F)C(F)(F)C(F)F)cc2cc1O | 69 to 71 °C
CCOP(=O)(CCCOn1cnc2c(Cl)nc(NC=O)nc21)OCC | 121 to 124 °C
Cn1cncc1C(O)(c1ccoc1)c1ccc2c(c1)c(-c1cccc(Cl)c1)cc(=O)n2C (stereo unspecified) | 248 °C
CN(C)CCCOc1ccc(Nc2nccc(-c3cccnc3)n2)cc1 | 85 to 87 °C
Cc1oc(-c2ccccc2)nc1COc1ccc(COc2nn(C)cc2CC(=O)O)cn1 | 139 to 140 °C
CC[C@@H]1c2onc(-c3ccc(Cl)cc3)c2CC[C@H]1C(=O)O (relative stereo) | 162 to 163 °C
c1ccc(C2Nc3c4c(nc5ccccc35)CCCC4O2)cc1 (stereo unspecified) | 225 to 235 °C
CCS(=O)(=O)c1ccc2c(c1)nc(CC(C)(C)C)n2CC1CCCO1 (stereo unspecified) | 142 °C
CC(=O)C(=NO)c1ccc(F)cc1F | 126 to 129 °C
CN(C)c1cc(Br)cc(S(=O)(=O)c2ccc([N+](=O)[O-])cc2)c1 | 166 to 168 °C
COc1ccc2nc(NC(=O)C(CC3CCCC3)c3ccc(S(=O)(=O)NCc4ccccc4)cc3)sc2n1 (stereo unspecified) | 237 to 240 °C
CCCOc1ccccc1-c1nc2nnc(SC)nc2c(=O)[nH]1 | 195 to 197 °C
CC1CCN2C(=N1)C(=O)c1cc(S(=O)(=O)N3CCCC3)ccc12 (stereo unspecified) | 152 to 153 °C
CCOC(=O)c1ccc(-c2ncc(-c3ccc(Cl)cc3)s2)cc1 | 167 to 168 °C

SMILES | melting point
CC(C)(CCCCCCNS(=O)(=O)c1ccc(Cl)cc1)C(=O)O | 95 to 96 °C
COC(=O)c1ccc(S(=O)Cc2cccc(Cl)c2)cn1 (stereo unspecified) | 75 to 77 °C
O=C1Nc2cccnc2N(C(=O)N2CCCCC2CCCCN2CCCCC2)c2ccccc21 (stereo unspecified) | 199 to 201 °C
CCN1CCC(C(=O)O)(S(=O)(=O)c2ccc(Oc3ccc(Cl)cc3)cc2)CC1 | 184 °C
CON(C)C(=O)C(Cc1c[nH]c2ccccc12)NC(=O)OC(C)(C)C (stereo unspecified) | 129 to 130 °C
CN1COCN(Cc2ccc(Cl)nc2)C1=N[N+](=O)[O-] | 116 to 118 °C
CC(=O)c1cc(C)ccc1OCCCN1CCC(c2noc3cc(F)ccc23)CC1 | 92 to 93 °C
CNN(NC)C(=O)Nc1cccc2c1C(=O)c1c-2n[nH]c1C(C)C | 231 to 233 °C
CC(=O)OC1C(NC(=O)c2ccc(C(F)(F)F)cc2)c2sc(C(C)=O)cc2OC1(C)C (stereo unspecified) | 225 to 227 °C
O=C(O)CC(CO)C(=O)c1ccc(Cl)c([N+](=O)[O-])c1 (stereo unspecified) | 210 to 213 °C
N#Cc1c(N)sc(C=O)c1Sc1ccccc1 | 230 °C
CSc1ccc(-c2nn(Cc3cccnc3)c(=S)cc2-c2ccc(Cl)cc2)cc1 | 130 to 131 °C
COc1ccc(-c2ccc3cc(C(=O)O)ccc3c2)cc1C12CC3CC(CC(C3)C1)C2 | 321 °C
CC(=N)NCCCCCCCCCCCCNC(C)=N | 92 to 97 °C
C=CCC1(C(=O)NCC)c2ccccc2Oc2ccccc21 | 111 to 112 °C
Cc1ccc(F)c([Si](C)(C)C)c1C(=O)N(C)C(C)(C)C | 44 to 47 °C
CC=CC1=C(O)C(=O)c2ccccc2C1=O | 133 to 134 °C
FC(F)(F)Oc1ccc2cnn(SC(Cl)(Cl)Cl)c2c1 | 45 °C
O=C(O)COc1cccc2c1Cc1sc(SCc3ccccc3)nc1-2 | 166 to 169 °C
COc1cc(Nc2c(C#N)cnc3cc(-c4ccc(CO)cc4)sc23)c(Cl)cc1Cl | 239 to 240 °C
BrCCCOc1ccc(-c2ccccc2)cc1 | 60 to 63 °C
CC(C)c1cccc(C(C)C)c1NC(=O)CN1CCN(CCSc2nc3ncccc3o2)CC1 | 153 to 154 °C
CC(C)(C)NCC(O)c1ccc(F)cc1 (stereo unspecified) | 117 °C
CCOC(=O)c1cnc(NC(=O)C(Cc2ccc(F)cc2)c2ccc(S(C)(=O)=O)cc2)cn1 (stereo unspecified) | 99 to 100 °C
O=C1CN(C(=O)CN2CC(c3ccc(F)cc3)CC2=O)CCN1 (stereo unspecified) | 200 to 203 °C
CNc1nnc(C(C)(CCl)CCl)s1 | 105 to 107 °C

SMILES | melting point
O=[N+]([O-])c1ccc(-c2ccc(C(O)CCl)o2)cc1 (stereo unspecified) | 111 to 113 °C
COc1ccc(S(=O)(=O)N2CCc3cccc(-c4ccccc4)c32)cc1 | 166 to 168 °C
O=C(O)c1ccc(Cl)c2c1OC(F)(F)O2 | 185 °C
FC(F)(F)c1cccc(-c2cc(C3CCNCC3)nnc2-c2ccncc2)c1 | 148 to 150 °C
COc1c(Cl)ccc(-c2cc(N)c(Cl)c(C(=O)NOC3CCCCO3)n2)c1F (stereo unspecified) | 176 to 179 °C
COc1cc2ccc(C3CO3)cc2cc1OC (stereo unspecified) | 115 to 117 °C
CSc1cc(C)nc(SC)c1NC(=O)CCCCSc1nc2ccccc2o1 | 147 to 150 °C
CC(F)c1nc2ncnn2c(NC2CCC(C(C)(C)C)CC2)c1Cl (stereo unspecified) | 138 to 139 °C
COc1ccc(C=Cc2ccc(O)c(OC)c2)cc1 | 163 to 166 °C
CCc1cnc(C)c(C(=O)O)c1 | 218 to 220 °C
CNC(=O)C(CC(O)CO)N(CCN(CCN(CCN(CC(=O)O)C(CC(O)CO)C(=O)NC)CC(=O)O)CC(=O)O)CC(=O)O (stereo unspecified) | 86 to 92 °C
Cc1cc2nc3c4cc(N)ccc4n(CCN(C)C)c3nc2cc1C | 250 to 251 °C
COc1cc(OC)cc(C(=O)N2CCN(C(=O)C3=Cc4cc(OC)c(OC)cc4CC3)CC2)c1 | 166 to 167 °C
COc1ccc(C(=O)N2CCC(Nc3nccc(-c4c(-c5ccc(F)cc5)nc5occn45)n3)CC2)cc1 | 196 to 197 °C
CSc1ncc2cc(Oc3ccc(F)cc3F)c(NS(C)(=O)=O)nc2n1 | 199 to 204 °C
COc1cc(OC)nc(C(C)c2ccccc2NS(=O)(=O)C(F)(F)F)n1 (stereo unspecified) | 132 to 133 °C
COc1ccnc2c(S(=O)c3nc4ccccc4[nH]3)cccc12 (stereo unspecified) | 178 to 179 °C
COc1cc(-n2nnn(C)c2=O)c(Cl)cc1Cl | 80 to 81 °C
CC(C)C1(C)N=C(c2ncc(C3OCC(C)(C)CO3)cc2C(=O)O)NC1=O (stereo unspecified) | 163 to 170 °C
CCCOC(=O)c1sccc1S(N)(=O)=O | 79 °C
COCCOc1cc2c(Nc3cc(OC)c(Cl)cc3Cl)c(C#N)cnc2cc1F | 170 to 172 °C
O=C(NC1CC1)c1nccnc1Oc1cccc(C(F)(F)F)c1 | 74 to 77 °C
CCCCC(=O)Nc1ccc2c(c1)C(=O)OC2CCCC (stereo unspecified) | 137 to 139 °C
